{
  "source": "paper PMC11597353",
  "about": "“Synthesis of Novel Gefitinib-Conjugated 1,2,3-Triazole Derivatives and Their Effect of Inducing DNA Damage and Apoptosis in Tumor Cells” (Molecules, 2024)",
  "key": {"HepG2 cells": {"system": "HepG2 cells", "assay": "Transwell migration assay", "type": "cell-based, human", "details": "HepG2, 2, 4, 8 μM, 48 h, vs control, p < 0.01", "source_text": "To investigate the effect of the compounds on the migration of wild-type liver cancer cells, we conducted wound healing and Transwell assays to assess changes in the migration ability of HepG2 cells after treatment with compounds 11m and 11t. […] The Transwell migration assay, another important method for evaluating cell migration, involves seeding tumor cells in a chamber and assessing their migration ability by counting the number of cells that pass through the membrane. […] These findings indicate that compounds 11m and 11t can inhibit the migration ability of liver cancer cells in a concentration-dependent manner.\nHepG2 cells were starved in serum-free Gibco DMEM for 24 h, then seeded in the upper chamber of a 24-well Transwell plate (Corning Inc., Corning, NY, USA) at a density of 5 × 10^5 cells/mL. 11m or 11t was added to achieve final concentrations of 0, 2, 4, and 8 μM. The upper chamber’s total volume was 200 μL, while the lower chamber contained 600 μL of Gibco DMEM with 20% serum. After 48 h of incubation, the culture medium was washed off with PBS, and the cells were fixed with 4% paraformaldehyde at room temperature for 20 min. […] Images were taken under an inverted microscope, and quantification was performed using ImageJ."}, "[1]": {"system": "Bcl-2/Caspase-3/PARP signaling pathway", "assay": "Western blot of apoptosis-related proteins in HepG2 cells", "type": "cell-based, human", "details": "48 h; for expression level of Bcl-2 / expression level of Caspase-3 / expression level of Caspase-9 / expression level of PARP / level of cleaved Caspase-3 / level of cleaved PARP: HepG2, 2, 4, 8 μM; for expression of Bax: HepG2, with increasing drug concentration", "source_text": "We conducted an in-depth study on the mechanisms of apoptosis induced by compounds 11m and 11t (Figure 9). The Bcl-2 protein family is located upstream in the apoptosis signaling pathway, with Bcl-2 exerting anti-apoptotic and pro-proliferative effects by inhibiting the release of cytochrome C (cyt-c) from the mitochondria. Previous studies have reported that many anticancer drugs exert pro-apoptotic effects by downregulating Bcl-2. When apoptosis occurs, the expression level of Bcl-2 is suppressed, cyt-c is released, and it binds to apoptotic protease activating factor (Apaf-1) to form the apoptosome, triggering a cascade reaction involving the Caspase family proteins. The apoptosome first promotes the activation of Caspase-9, which in turn activates Caspase-3, forming cleaved Caspase-3. Cleaved Caspase-3 further activates downstream PARP proteins, ultimately promoting apoptosis. […] After treating HepG2 cells with different concentrations of the compounds for 48 h, we extracted cellular proteins and used Western blotting to detect changes in the expression of apoptosis-related proteins. […] The expression levels of Caspase-3, Caspase-9, and PARP decreased with increasing drug concentration, whereas the levels of cleaved Caspase-3 and cleaved PARP increased.\nHepG2 cells were seeded in 6-well plates and incubated for 24 h. They were then treated with 11m or 11t at concentrations of 2, 4, or 8 μM for 48 h. The cells were harvested, and cytoplasmic and nuclear proteins were extracted using cell lysis buffer from Beyotime Biotechnology (Shanghai, China). Protein supernatants were mixed with loading buffer, denatured at 100 °C for 10 min, and quantified using BCA. Equal amounts of protein, along with molecular weight markers, were loaded onto a 12% SDS-PAGE gel and separated by electrophoresis for 2 h. The separated proteins were transferred onto NC membranes, and nonspecific binding sites on the membranes were blocked with 5% skim milk. Membranes were incubated with primary antibodies overnight at 4 °C, followed by incubation with HRP-conjugated secondary antibodies (goat anti-rabbit or goat anti-mouse IgG) at room temperature for 2 h. Protein bands were visualized on NC membranes using ECL ultra-sensitive chemiluminescence solution and a Bio-Rad gel imaging and analysis system."}, "normal liver cells (L02)": {"system": "normal liver cells (L02)", "assay": "CCK8 toxicity against normal liver cells (L02)", "details": "Figure 3"}, "Kunming mice": {"system": "Kunming mice", "assay": "Acute toxicity test in mice", "type": "in vivo", "procedure": "To further assess the safety of the compounds, we conducted an acute toxicity experiment on mice.\nLiver function was evaluated by measuring serum glutamic pyruvic transaminase (GPT) and glutamic oxaloacetic transaminase (GOT) levels (Figure 10C). GPT and GOT are commonly used indicators for assessing liver function, reflecting physiological and pathological changes in the liver. Elevated serum levels of GPT and GOT indicate damage to liver cells or mitochondria. […] This provides additional evidence for the high safety of the compound and experimental data for clinical drug safety (p > 0.05).\nSix 5-week-old, SPF-grade, healthy, male Kunming mice (31.13 ± 1.13 g) were purchased from Henan Skibest Biotechnology Co., Ltd. (Anyang, China) (License No.: SCXK (Yu) 2020-0005). They were housed at the SPF animal center of the School of Basic Medicine and Forensic Science, Henan University of Science and Technology, with normal solid food and drinking water provided, and a 12 h light–dark cycle each day. After one week of acclimatization, the mice were randomly divided into two groups: the control group and the treatment group (11t), which were administered a single gavage of the corresponding volume of solvent and drug (drug concentration: 800 mg/kg; drug solvent: 10% DMSO + 40% PEG300 + 5% Tween 80 + 45% saline) at a dosage of 0.1 mL/10 g. After administration, the mice’s activity was monitored daily, and their weight was recorded. After 14 days, blood was collected via the eye and the mice were euthanized by cervical dislocation. The heart, liver, spleen, lungs, and kidneys were extracted, rinsed with saline, and the surface moisture was absorbed with filter paper. The weight of all organs was measured using an electronic balance. The organ coefficient was calculated as organ weight/body weight × 100. Blood samples were left at room temperature for 1 h, then centrifuged at 2500 rpm for 20 min to measure liver function indicators GPT and GOT (Nanjing Jiancheng Bioengineering Institute, Nanjing, China). After weighing the organs, they were fixed in 4% tissue fixative for 24 h, dehydrated, cleared, embedded in paraffin, and stained with HE for microscopic observation of the tissues."}, "[2]": {"details": "mice, single gavage 800 mg/kg, day 14"}},
  "data": [
    {"smiles": "COc1cc2ncnc(Nc3cccc(-c4cn(Cc5ccc(I)cc5)nn4)c3)c2cc1OCCCN1CCOCC1", "note": "[Compound 11m, N-(3-(1-(4-iodobenzyl)-1H-1,2,3-triazol-4-yl)phenyl)-7-methoxy-6-(3-morpholinopropoxy)quinazolin-4-amine]", "values": [
      {"measurement": "number of cells that migrated through the microporous membrane", "setting": "HepG2 cells", "result": "significantly reduced"},
      {"measurement": "expression level of Bcl-2", "setting": "[1]", "result": "decreased"},
      {"measurement": "expression level of Caspase-3", "setting": "[1]", "result": "decreased"},
      {"measurement": "expression level of Caspase-9", "setting": "[1]", "result": "decreased"},
      {"measurement": "expression level of PARP", "setting": "[1]", "result": "decreased"},
      {"measurement": "level of cleaved Caspase-3", "setting": "[1]", "result": "increased"},
      {"measurement": "level of cleaved PARP", "setting": "[1]", "result": "increased"},
      {"measurement": "expression of Bax", "setting": "[1]", "result": "increased"},
      {"measurement": "melting point", "result": "185 to 186", "unit": "°C"},
      {"measurement": "toxicity against normal liver cells (L02)", "setting": "normal liver cells (L02)", "result": "favorable safety profile"}
    ]},
    {"smiles": "COc1cc2ncnc(Nc3cccc(-c4cn(Cc5cccc(I)c5)nn4)c3)c2cc1OCCCN1CCOCC1", "note": "[Compound 11t, N-(3-(1-(3-iodobenzyl)-1H-1,2,3-triazol-4-yl)phenyl)-7-methoxy-6-(3-morpholinopropoxy)quinazolin-4-amine]", "values": [
      {"measurement": "number of cells that migrated through the microporous membrane", "setting": "HepG2 cells", "result": "significantly reduced"},
      {"measurement": "expression level of Bcl-2", "setting": "[1]", "result": "decreased"},
      {"measurement": "expression level of Caspase-3", "setting": "[1]", "result": "decreased"},
      {"measurement": "expression level of Caspase-9", "setting": "[1]", "result": "decreased"},
      {"measurement": "expression level of PARP", "setting": "[1]", "result": "decreased"},
      {"measurement": "level of cleaved Caspase-3", "setting": "[1]", "result": "increased"},
      {"measurement": "level of cleaved PARP", "setting": "[1]", "result": "increased"},
      {"measurement": "expression of Bax", "setting": "[1]", "result": "increased"},
      {"measurement": "toxicity in mice", "setting": "Kunming mice; acute toxicity, 800 mg/kg gavage", "result": "low toxicity"},
      {"measurement": "body weight vs control group", "setting": "Kunming mice; mice, single gavage 800 mg/kg, 14 days, p > 0.05", "result": "no statistically significant differences"},
      {"measurement": "histological analysis (H&E) of hearts, livers, spleens, lungs, and kidneys", "setting": "Kunming mice; [2]", "result": "no significant toxic characteristics"},
      {"measurement": "organ indices of the heart, liver, spleen, lungs, and kidneys vs control group", "setting": "Kunming mice; [2]", "result": "no statistically significant differences"},
      {"measurement": "organ morphological examination", "setting": "Kunming mice; [2]", "result": "No pathological morphology was observed"},
      {"measurement": "serum GPT and GOT (biochemical indicators) vs control group", "setting": "Kunming mice; mice, single gavage 800 mg/kg, day 14, p > 0.05", "result": "no statistically significant differences"},
      {"measurement": "toxicity against normal liver cells (L02)", "setting": "normal liver cells (L02)", "result": "favorable safety profile"}
    ]}
  ]
}
